Here are results for 30 compounds from ChEMBL document CHEMBL5230144, “Synthesis and Biological Evaluation of Celastrol Derivatives with Improved Cytotoxic Selectivity and Antitumor Activities” (J Nat Prod, 2021).

Series [1] can be described thus: Cytotoxicity against human mesenchymal bone marrow stem cells measured after 48 hrs by MTT assay. It counts as toxicity, cell-based.
The next series concerns MDA-MB-231. Put plainly: cells. As to conditions: Homo sapiens, MDA-MB-231, 48 h.

Description for MDA-MB-231: Antiproliferative activity against human MDA-MB-231 cells assessed as inhibition of cell proliferation measured after 48 hrs by MTT assay

What is called IC50 is the concentration needed to halve the response being measured. In the case of `C#CCOC(=O)[C@]1(C)CC[C@]2(C)CC[C@]3(C)C4=CC=C5C(=CC(=O)C(OC(=O)/C=C/c6cccc(Cl)c6)=C5C)[C@]4(C)CC[C@@]3(C)[C@@H]2C1`, the IC50 at 48 h in series [1] worked out at 2000 nM. Also, in the series with MDA-MB-231, 300 nM corresponded to half-maximal inhibition (IC50).

Regarding `C#CCOC(=O)[C@]1(C)CC[C@]2(C)CC[C@]3(C)C4=CC=C5C(=CC(=O)C(OC(=O)C=C)=C5C)[C@]4(C)CC[C@@]3(C)[C@@H]2C1`, the IC50 at 48 h in series [1] was 3700 nM. In addition, in the series on MDA-MB-231, the midpoint of inhibition, the IC50, lay at 700 nM.

Consider `C#CCOC(=O)[C@]1(C)CC[C@]2(C)CC[C@]3(C)C4=CC=C5C(=CC(=O)C(OC(=O)N6CCN(c7ccccc7Cl)CC6)=C5C)[C@]4(C)CC[C@@]3(C)[C@@H]2C1`, for which, in series [1], the 50% inhibitory concentration (IC50) at 48 h amounted to 1900 nM. The same compound returned an IC50 in the series with MDA-MB-231 of 200 nM.

For `C#CCOC(=O)[C@]1(C)CC[C@]2(C)CC[C@]3(C)C4=CC=C5C(=CC(=O)C(OC(C)=O)=C5C)[C@]4(C)CC[C@@]3(C)[C@@H]2C1`, inhibition in series [1] was half-maximal at 2400 nM (IC50 at 48 h). The compound further showed a concentration for half-maximal inhibition (IC50) in the series with MDA-MB-231 of 500 nM.

As to `C#CCOC(=O)[C@]1(C)CC[C@]2(C)CC[C@]3(C)C4=CC=C5C(=CC(=O)C(OC(=O)N6CCN(c7ccc(Cl)cc7)CC6)=C5C)[C@]4(C)CC[C@@]3(C)[C@@H]2C1`, in series [1], the IC50 at 48 h was found to be 1600 nM. For the same compound, in the series with MDA-MB-231, the IC50 came out at 200 nM.

In series [1], `C#CCOC(=O)[C@]1(C)CC[C@]2(C)CC[C@]3(C)C4=CC=C5C(=CC(=O)C(OC(=O)N6c7ccccc7CCc7ccccc76)=C5C)[C@]4(C)CC[C@@]3(C)[C@@H]2C1` had an IC50 at 48 h of 1000 nM. This compound gave an IC50 with MDA-MB-231 of 300 nM.

On to `C#CCOC(=O)[C@]1(C)CC[C@]2(C)CC[C@]3(C)C4=CC=C5C(=CC(=O)C(OC(=O)/C=C/c6ccccc6F)=C5C)[C@]4(C)CC[C@@]3(C)[C@@H]2C1`, for which the IC50 at 48 h in series [1] was 1400 nM. This compound also had an IC50 with MDA-MB-231 of 300 nM.

As to `C#CCOC(=O)[C@]1(C)CC[C@]2(C)CC[C@]3(C)C4=CC=C5C(=CC(=O)C(OC(=O)N(C)C)=C5C)[C@]4(C)CC[C@@]3(C)[C@@H]2C1`, the IC50 at 48 h in series [1] was found to be 2000 nM. In the series on MDA-MB-231, 200 nM corresponded to half-maximal inhibition (IC50).

For `C#CCOC(=O)[C@]1(C)CC[C@]2(C)CC[C@]3(C)C4=CC=C5C(=CC(=O)C(OC(=O)N6CCN(c7cccc(OC)c7)CC6)=C5C)[C@]4(C)CC[C@@]3(C)[C@@H]2C1`, the midpoint of inhibition in series [1], the IC50 at 48 h, lay at 1800 nM. This compound yielded an IC50 with MDA-MB-231 of 300 nM.

In series [1], `C#CCOC(=O)[C@]1(C)CC[C@]2(C)CC[C@]3(C)C4=CC=C5C(=CC(=O)C(OC(=O)/C=C/C)=C5C)[C@]4(C)CC[C@@]3(C)[C@@H]2C1` displayed an IC50 at 48 h of 3000 nM. This compound also gave a half-inhibitory concentration (IC50) in the series on MDA-MB-231 of 500 nM.

`C#CCOC(=O)[C@]1(C)CC[C@]2(C)CC[C@]3(C)C4=CC=C5C(=CC(=O)C(OC(=O)N(CCCC)CCCC)=C5C)[C@]4(C)CC[C@@]3(C)[C@@H]2C1` registered a half-maximal inhibitory concentration (IC50) at 48 h in series [1] of 1200 nM. Besides, the half-maximal inhibitory concentration (IC50) with MDA-MB-231 was 100 nM.

The compound `C#CCOC(=O)[C@]1(C)CC[C@]2(C)CC[C@]3(C)C4=CC=C5C(=CC(=O)C(OC(=O)N6CCN(C)CC6)=C5C)[C@]4(C)CC[C@@]3(C)[C@@H]2C1` yielded an IC50 at 48 h in series [1] of 2000 nM. The midpoint of inhibition in the series on MDA-MB-231, the IC50, lay at 300 nM.

`C#CCOC(=O)[C@]1(C)CC[C@]2(C)CC[C@]3(C)C4=CC=C5C(=CC(=O)C(OC(=O)N(C)CCC)=C5C)[C@]4(C)CC[C@@]3(C)[C@@H]2C1` had an IC50 at 48 h in series [1] of 900 nM. Moreover, the half-inhibitory concentration (IC50) in the series with MDA-MB-231 was determined as 300 nM.

Compound `C#CCOC(=O)[C@]1(C)CC[C@]2(C)CC[C@]3(C)C4=CC=C5C(=CC(=O)C(OC(=O)N6c7ccccc7C=Cc7ccccc76)=C5C)[C@]4(C)CC[C@@]3(C)[C@@H]2C1` had an IC50 at 48 h in series [1] of 2200 nM. Further, in the series with MDA-MB-231, 200 nM corresponded to half-maximal inhibition (IC50).

In series [1], `C#CCOC(=O)[C@]1(C)CC[C@]2(C)CC[C@]3(C)C4=CC=C5C(=CC(=O)C(OC(=O)N6CCN(c7ccccc7)CC6)=C5C)[C@]4(C)CC[C@@]3(C)[C@@H]2C1` had an IC50 at 48 h of 1800 nM. This compound also showed an IC50 in the series with MDA-MB-231 of 200 nM.

In turn, `C#CCOC(=O)[C@]1(C)CC[C@]2(C)CC[C@]3(C)C4=CC=C5C(=CC(=O)C(OC(=O)/C=C/c6cccc(C)c6)=C5C)[C@]4(C)CC[C@@]3(C)[C@@H]2C1` returned a concentration for half-maximal inhibition (IC50) at 48 h in series [1] of 2900 nM. This compound also gave a 50% inhibitory concentration (IC50) in the series with MDA-MB-231 of 400 nM.

With `C#CCOC(=O)[C@]1(C)CC[C@]2(C)CC[C@]3(C)C4=CC=C5C(=CC(=O)C(OC(=O)N6CCCCC6)=C5C)[C@]4(C)CC[C@@]3(C)[C@@H]2C1`, the IC50 at 48 h in series [1] is 2400 nM. Besides, 100 nM corresponded to half-maximal inhibition in the series on MDA-MB-231 (IC50).

Consider `C#CCOC(=O)[C@]1(C)CC[C@]2(C)CC[C@]3(C)C4=CC=C5C(=CC(=O)C(OC(=O)CCC)=C5C)[C@]4(C)CC[C@@]3(C)[C@@H]2C1`, for which the half-maximal inhibitory concentration (IC50) at 48 h in series [1] was determined as 2600 nM. The half-inhibitory concentration (IC50) in the series on MDA-MB-231 was 400 nM.

On to `C#CCOC(=O)[C@]1(C)CC[C@]2(C)CC[C@]3(C)C4=CC=C5C(=CC(=O)C(OC(=O)N(C)CC)=C5C)[C@]4(C)CC[C@@]3(C)[C@@H]2C1`, for which, in series [1], the half-inhibitory concentration (IC50) at 48 h came to 3000 nM. The half-maximal inhibitory concentration (IC50) with MDA-MB-231 amounted to 300 nM.

The compound `C#CCOC(=O)[C@]1(C)CC[C@]2(C)CC[C@]3(C)C4=CC=C5C(=CC(=O)C(OC(=O)N(CC)CC)=C5C)[C@]4(C)CC[C@@]3(C)[C@@H]2C1` gave an IC50 at 48 h in series [1] of 3200 nM. For the same compound, the half-inhibitory concentration (IC50) with MDA-MB-231 came out at 300 nM.

In series [1], `C#CCOC(=O)[C@]1(C)CC[C@]2(C)CC[C@]3(C)C4=CC=C5C(=CC(=O)C(OC(=O)/C=C/c6ccccc6)=C5C)[C@]4(C)CC[C@@]3(C)[C@@H]2C1` displayed an IC50 at 48 h of 2800 nM. The compound further gave an IC50 in the series on MDA-MB-231 of 500 nM.

The compound `C#CCOC(=O)[C@]1(C)CC[C@]2(C)CC[C@]3(C)C4=CC=C5C(=CC(=O)C(OC(=O)N6c7ccccc7Sc7ccccc76)=C5C)[C@]4(C)CC[C@@]3(C)[C@@H]2C1` registered a half-maximal inhibitory concentration (IC50) at 48 h in series [1] of 2900 nM. In the series with MDA-MB-231, this compound gave an IC50 of 200 nM.

`C#CCOC(=O)[C@]1(C)CC[C@]2(C)CC[C@]3(C)C4=CC=C5C(=CC(=O)C(OC(=O)N6CCCC6)=C5C)[C@]4(C)CC[C@@]3(C)[C@@H]2C1` displayed an IC50 at 48 h in series [1] of 2700 nM. The compound also registered an IC50 with MDA-MB-231 of 200 nM.

In series [1], `C#CCOC(=O)[C@]1(C)CC[C@]2(C)CC[C@]3(C)C4=CC=C5C(=CC(=O)C(OC(=O)C(=C)C)=C5C)[C@]4(C)CC[C@@]3(C)[C@@H]2C1` returned an IC50 at 48 h of 2400 nM. In the series on MDA-MB-231, this compound yielded a 50% inhibitory concentration (IC50) of 400 nM.

The compound `C#CCOC(=O)[C@]1(C)CC[C@]2(C)CC[C@]3(C)C4=CC=C5C(=CC(=O)C(OC(=O)c6ccc(F)cc6)=C5C)[C@]4(C)CC[C@@]3(C)[C@@H]2C1` had a half-inhibitory concentration (IC50) at 48 h in series [1] of 2000 nM. In addition, the IC50 in the series on MDA-MB-231 was determined as 400 nM.

`C#CCOC(=O)[C@]1(C)CC[C@]2(C)CC[C@]3(C)C4=CC=C5C(=CC(=O)C(OC(=O)c6ccc(Br)cc6)=C5C)[C@]4(C)CC[C@@]3(C)[C@@H]2C1` came in with an IC50 at 48 h in series [1] of 2200 nM. Further, the IC50 in the series with MDA-MB-231 is 300 nM.

`C#CCOC(=O)[C@]1(C)CC[C@]2(C)CC[C@]3(C)C4=CC=C5C(=CC(=O)C(OC(=O)N(CCC)CCC)=C5C)[C@]4(C)CC[C@@]3(C)[C@@H]2C1` displayed a half-maximal inhibitory concentration (IC50) at 48 h in series [1] of 900 nM. The compound further had a half-maximal inhibitory concentration (IC50) in the series with MDA-MB-231 of 300 nM.

Turning to `C#CCOC(=O)[C@]1(C)CC[C@]2(C)CC[C@]3(C)C4=CC=C5C(=CC(=O)C(OC(=O)N(C)CCCC)=C5C)[C@]4(C)CC[C@@]3(C)[C@@H]2C1`, the IC50 at 48 h in series [1] worked out at 1000 nM. This compound also returned a half-inhibitory concentration (IC50) with MDA-MB-231 of 300 nM.

As to `C#CCOC(=O)[C@]1(C)CC[C@]2(C)CC[C@]3(C)C4=CC=C5C(=CC(=O)C(OC(=O)N(c6ccccc6)c6ccccc6)=C5C)[C@]4(C)CC[C@@]3(C)[C@@H]2C1`, in series [1], the IC50 at 48 h turned out to be 3100 nM. The compound also returned a 50% inhibitory concentration (IC50) in the series with MDA-MB-231 of 200 nM.

In series [1], `C#CCOC(=O)[C@]1(C)CC[C@]2(C)CC[C@]3(C)C4=CC=C5C(=CC(=O)C(OC(=O)N6CCN(c7ccccc7OC)CC6)=C5C)[C@]4(C)CC[C@@]3(C)[C@@H]2C1` gave an IC50 at 48 h of 1800 nM. Further, in the series on MDA-MB-231, half-maximal inhibition (IC50) was put at 300 nM.
